According to patent publication US20240158446A1, “CYCLIC COMPOUND HAVING SELECTIVE INHIBITORY ACTION ON KRAS OVER HRAS AND NRAS” (CHUGAI SEIYAKU KABUSHIKI KAISHA, priority 2021, published 2024):

Assays:
[1] = target: GDP-bound KRAS wild-type protein (Homo sapiens, UniProt P01116); assay: Binding to KRAS by surface plasmon resonance (SPR), Single Cycle Kinetics; settings: SPR, Single Cycle Kinetics, 1:1 binding model; GDP-bound KRAS wild-type protein; read-out: KRAS KD
[2] = target: GDP-bound HRAS wild-type protein (Homo sapiens, UniProt P01112); assay: Binding to HRAS by surface plasmon resonance (SPR), Single Cycle Kinetics; settings: SPR; GDP-bound HRAS wild-type protein vs GDP-bound KRAS wild-type protein; KD ratio class
Sequence of GDP-bound HRAS wild-type protein (P01112 whole entry): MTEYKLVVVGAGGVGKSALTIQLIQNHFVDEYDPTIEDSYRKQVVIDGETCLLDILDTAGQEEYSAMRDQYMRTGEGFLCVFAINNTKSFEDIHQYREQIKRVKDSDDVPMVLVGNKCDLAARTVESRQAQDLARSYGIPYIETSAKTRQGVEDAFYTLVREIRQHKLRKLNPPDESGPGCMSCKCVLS

[3] = target: GDP-bound NRAS wild-type protein (Homo sapiens, UniProt P01111); assay: Binding to NRAS by surface plasmon resonance (SPR), Single Cycle Kinetics; settings: SPR; GDP-bound NRAS wild-type protein vs GDP-bound KRAS wild-type protein; KD ratio class
Sequence of GDP-bound NRAS wild-type protein (P01111 whole entry): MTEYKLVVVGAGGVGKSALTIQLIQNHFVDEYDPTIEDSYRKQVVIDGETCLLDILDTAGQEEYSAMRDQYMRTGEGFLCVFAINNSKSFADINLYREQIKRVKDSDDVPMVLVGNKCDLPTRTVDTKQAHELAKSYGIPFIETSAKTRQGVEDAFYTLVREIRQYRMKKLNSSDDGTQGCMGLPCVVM

Sequence of GDP-bound KRAS wild-type protein (P01116 whole entry): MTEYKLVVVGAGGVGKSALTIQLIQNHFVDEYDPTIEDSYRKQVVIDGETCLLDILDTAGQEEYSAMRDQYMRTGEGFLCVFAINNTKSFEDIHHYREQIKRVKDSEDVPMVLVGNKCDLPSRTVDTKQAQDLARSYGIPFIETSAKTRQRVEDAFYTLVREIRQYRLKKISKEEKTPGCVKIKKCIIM

Row | SMILES | Kd [1] [nM] | HRAS/KRAS (ratio of KD value for HRAS to KD value for KRAS) [2] | NRAS/KRAS (ratio of KD value for NRAS to KD value for KRAS) [3]
1 | CCO[C@@H]1C[C@H]2C(=O)NC3(CCCC3)C(=O)N(C)[C@@H](C3CCCC3)C(=O)N(C)[C@H](C(=O)N3CCOCC3)CC(=O)N(C)[C@@H](CC)C(=O)N[C@@H]([C@@H](C)CC)C(=O)N(C)CC(=O)N(C)[C@H]3C[C@H](C)C(C)CN(C3=O)[C@@H](Cc3ccc(C(F)(F)F)cc3)C(=O)N(C)CC(=O)N[C@@H](CCc3cc(F)c(C(F)(F)F)c(F)c3)C(=O)N2C1 (stereo partly drawn) [PP1348] | 0.076 | B (a compound having 3 or more and less than 10 is denoted as B) | B (a compound having 3 or more and less than 10 is denoted as B)
2 | CC[C@H](C)[C@@H]1NC(=O)[C@H](CC)N(C)C(=O)C[C@@H](C(=O)N(C)C)N(C)C(=O)[C@H](C2CCCC2)N(C)C(=O)C2(CCCC2)NC(=O)[C@@H]2CCCN2C(=O)[C@H](CCc2cc(F)c(C(F)(F)F)c(F)c2)NC(=O)CN(C)C(=O)[C@H](Cc2ccc(C(F)(F)F)cc2)N2CC(C)[C@@H](C)C[C@@H](C2=O)N(C)C(=O)CN(C)C1=O (stereo partly drawn) [PP1349] | 0.09 | B (a compound having 3 or more and less than 10 is denoted as B) | C (A compound having a KD ratio of 0.1 or more and less than 3 is denoted as C)
3 | CCCN(C)C(=O)[C@@H]1CC(=O)N(C)[C@@H](CC(C)C)C(=O)N[C@@H]([C@@H](C)CC)C(=O)N(C)CC(=O)N(C)[C@H]2C/C=C\CCN(C2=O)[C@@H](Cc2ccc(C(F)(F)F)cc2)C(=O)N(C)CC(=O)N[C@@H](CCc2cc(F)c(C(F)(F)F)c(F)c2)C(=O)N2C[C@H](OCC)C[C@H]2C(=O)NC2(CCC2)C(=O)N(C)[C@@H](C2CCCC2)C(=O)N1C [PP1387, (2S,8S,12R,14S,20S,23S,27S,30S,36S,38Z)-20-cyclopentyl-8-[2-[3,5-difluoro-4-(trifluoromethyl)phenyl]ethyl]-12-ethoxy-27-isobutyl-N,4,19,22,26,32,35-heptamethyl-30-[(1S)-1-methylpropyl]-3,6,9,15,18,21,25,28,31,34,42-undecaoxo-N-propyl-2-[[4-(trifluoromethyl)phenyl]methyl]spiro[1,4,7,10,16,19,22,26,29,32,35-undecazatricyclo[34.5.1.0^10,14]dotetracont-38-ene-17,1′-cyclobutane]-23-carboxamide] | 0.098 | B (a compound having 3 or more and less than 10 is denoted as B) | A (a compound having 10 or more and less than 20 is denoted as A)
4 | CCCN(C)C(=O)[C@@H]1CC(=O)N(C)[C@@H](CC2CC2)C(=O)N[C@@H]([C@@H](C)CC)C(=O)N(C)CC(=O)N(C)[C@H]2C/C=C\CCN(C2=O)[C@@H](Cc2ccc(C(F)(F)F)cc2)C(=O)N(C)CC(=O)N[C@@H](CCc2cc(F)c(C(F)(F)F)c(F)c2)C(=O)N2C[C@H](OCC)C[C@H]2C(=O)NC2(CCC2)C(=O)N(C)[C@@H](C2CCCC2)C(=O)N1C [PP1388] | 0.076 | B (a compound having 3 or more and less than 10 is denoted as B) | A (a compound having 10 or more and less than 20 is denoted as A)
5 | CCC[C@H]1C(=O)N[C@@H]([C@@H](C)CC)C(=O)N(C)CC(=O)N(C)[C@H]2C/C=C\CCN(C2=O)[C@@H](Cc2ccc(C(F)(F)F)cc2)C(=O)N(C)CC(=O)N[C@@H](CCc2cc(F)c(C(F)(F)F)c(F)c2)C(=O)N2C[C@H](OCC)C[C@H]2C(=O)NC2(CCC2)C(=O)N(C)[C@@H](C2CCCC2)C(=O)N(C)[C@H](C(=O)N(C)CCC)CC(=O)N1C [PP1389, (2S,8S,12R,14S,20S,23S,27S,30S,36S,38Z)-20-cyclopentyl-8-[2-[3,5-difluoro-4-(trifluoromethyl)phenyl]ethyl]-12-ethoxy-N,4,19,22,26,32,35-heptamethyl-30-[(1S)-1-methylpropyl]-3,6,9,15,18,21,25,28,31,34,42-undecaoxo-N,27-dipropyl-2-[[4-(trifluoromethyl)phenyl]methyl]spiro[1,4,7,10,16,19,22,26,29,32,35-undecazatricyclo[34.5.1.0^10,14]dotetracont-38-ene-17,1′-cyclobutane]-23-carboxamide] | 0.066 | A (a compound having 10 or more and less than 20 is denoted as A) | AA (a compound having 20 or more is denoted as AA)
6 | CCCOC[C@H]1C(=O)N[C@@H]([C@@H](C)CC)C(=O)N(C)CC(=O)N(C)[C@H]2C/C=C\CCN(C2=O)[C@@H](Cc2ccc(C)cc2)C(=O)N(C)CC(=O)N[C@@H](CCc2cc(F)c(C(F)(F)F)c(F)c2)C(=O)N2C[C@H](OCC)C[C@H]2C(=O)NC2(CCCC2)C(=O)N(C)[C@@H](C2CCCC2)C(=O)N(C)[C@H](C(=O)N2CCCC2)CC(=O)N1C [PP1401] | 0.26 | A (a compound having 10 or more and less than 20 is denoted as A) | A (a compound having 10 or more and less than 20 is denoted as A)
7 | CCO[C@@H]1C[C@H]2C(=O)NC3(CCC3)C(=O)N(C)[C@@H](C3CCCC3)C(=O)N(C)[C@H](C)CC(=O)N(C)[C@@H](CC(C)C)C(=O)N[C@@H]([C@@H](C)CC)C(=O)N(C)CC(=O)N(C)[C@H]3C/C=C\CCN(C3=O)[C@@H](Cc3ccc(C)cc3)C(=O)N(C)CC(=O)N[C@@H](CCc3cc(F)c(C(F)(F)F)c(F)c3)C(=O)N2C1 [PP1417] | 0.26 | B (a compound having 3 or more and less than 10 is denoted as B) | B (a compound having 3 or more and less than 10 is denoted as B)
8 | CCO[C@@H]1C[C@H]2C(=O)NC3(CCC3)C(=O)N(C)[C@@H](C3CCCC3)C(=O)N(C)[C@H](C(=O)N(C)C)CC(=O)N(C)[C@@H](CC3CCCC3)C(=O)N[C@@H]([C@@H](C)CC)C(=O)N(C)CC(=O)N(C)[C@H]3C/C=C\CCN(C3=O)[C@@H](Cc3ccc(C)cc3)C(=O)N(C)CC(=O)N[C@@H](CCc3ccc(Cl)c(Cl)c3)C(=O)N2C1 [PP1487] | 0.34 | A (a compound having 10 or more and less than 20 is denoted as A) | A (a compound having 10 or more and less than 20 is denoted as A)
9 | CCO[C@@H]1C[C@H]2C(=O)NC3(CCC3)C(=O)N(C)[C@@H](C3CCCC3)C(=O)N(C)[C@H](C(=O)N(C)C)CC(=O)N(C)[C@@H](CC(C)C)C(=O)N[C@@H]([C@@H](C)CC)C(=O)N(C)CC(=O)N(C)[C@H]3C/C=C\CCN(C3=O)[C@@H](Cc3ccc(F)cc3)C(=O)N(C)CC(=O)N[C@@H](CCc3cc(F)c(C(F)(F)F)c(F)c3)C(=O)N2C1 [PP1488, (2S,8S,12R,14S,20S,23S,27S,30S,36S,38Z)-20-cyclopentyl-8-[2-[3,5-difluoro-4-(trifluoromethyl)phenyl]ethyl]-12-ethoxy-2-[(4-fluorophenyl)methyl]-27-isobutyl-N,N,4,19,22,26,32,35-octamethyl-30-[(1S)-1-methylpropyl]-3,6,9,15,18,21,25,28,31,34,42-undecaoxo-spiro[1,4,7,10,16,19,22,26,29,32,35-undecazatricyclo[34.5.1.0^10,14]dotetracont-38-ene-17,1′-cyclobutane]-23-carboxamide] | 0.081 | B (a compound having 3 or more and less than 10 is denoted as B) | A (a compound having 10 or more and less than 20 is denoted as A)
10 | CCO[C@@H]1C[C@H]2C(=O)NC3(CCC3)C(=O)N(C)[C@@H](C3CCCC3)C(=O)N(C)[C@H](C)CC(=O)N(C)[C@@H](CC3CC3)C(=O)N[C@@H]([C@@H](C)CC)C(=O)N(C)CC(=O)N(C)[C@H]3C/C=C\CCN(C3=O)[C@@H](Cc3ccc(F)cc3)C(=O)N(C)CC(=O)N[C@@H](CCc3cc(F)c(C(F)(F)F)c(F)c3)C(=O)N2C1 [PP1490] | 0.6 | B (a compound having 3 or more and less than 10 is denoted as B) | B (a compound having 3 or more and less than 10 is denoted as B)
11 | CCO[C@@H]1C[C@H]2C(=O)NC3(CCC3)C(=O)N(C)[C@@H](C3CCCC3)C(=O)N(C)[C@H](C(=O)N3CCOCC3)CC(=O)N(C)[C@@H](CC3CC3)C(=O)N[C@@H]([C@@H](C)CC)C(=O)N(C)CC(=O)N(C)[C@H]3C/C=C\CCN(C3=O)[C@@H](Cc3ccc(F)cc3)C(=O)N(C)CC(=O)N[C@@H](CCc3cc(F)c(C(F)(F)F)c(F)c3)C(=O)N2C1 [PP1496] | 0.26 | B (a compound having 3 or more and less than 10 is denoted as B) | A (a compound having 10 or more and less than 20 is denoted as A)
12 | CC[C@H](C)[C@@H]1NC(=O)[C@H](CC2CC2)N(C)C(=O)C[C@@H](C(=O)N(C)C)N(C)C(=O)[C@H](C2CCCC2)N(C)C(=O)C2(CCC2)NC(=O)[C@@H]2C[C@@H](F)CN2C(=O)[C@H](CCc2cc(F)c(C(F)(F)F)c(F)c2)NC(=O)CN(C)C(=O)[C@H](Cc2ccc(C(F)(F)F)cc2)N2CC/C=C\C[C@@H](C2=O)N(C)C(=O)CN(C)C1=O [PP1497, (2S,8S,12R,14S,20S,23S,27S,30S,36S,38Z)-20-cyclopentyl-27-(cyclopropylmethyl)-8-[2-[3,5-difluoro-4-(trifluoromethyl)phenyl]ethyl]-12-fluoro-N,N,4,19,22,26,32,35-octamethyl-30-[(1S)-1-methylpropyl]-3,6,9,15,18,21,25,28,31,34,42-undecaoxo-2-[[4-(trifluoromethyl)phenyl]methyl]spiro[1,4,7,10,16,19,22,26,29,32,35-undecazatricyclo[34.5.1.0^10,14]dotetracont-38-ene-17,1′-cyclobutane]-23-carboxamide] | 0.022 | A (a compound having 10 or more and less than 20 is denoted as A) | A (a compound having 10 or more and less than 20 is denoted as A)
